Experimental data taken from patent US20230114241A1, “METHODS OF TREATING EPILEPSY USING THE SAME” (Trevena, Inc., priority 2019, published 2023).

Biological target: human sphingosine-1-phosphate receptor 1 (S1P1) (Homo sapiens, UniProt P21453)
Assay: Inhibition of cAMP production (HTRF cAMP HiRange), S1P1 CHO-K1 cells
Type: cell-based
Conditions: inhibition of cAMP production; potency; read-out: hS1P1 CAMP pEC50 (converted)
Method: Stable clonal Chinese hamster ovary K1 (CHO-K1) cells co-expressing EA-β-arrestin2 and the human sphingosine-1-phosphate receptor 1 (NM_001400, S1P1) with a C-terminal Prolink™ tag were purchased from DiscoverX corporation (Cat #: 93-0207C2).
Cell lines were cultured in AssayComplete™ Media 6 (DiscoverX Corporation, Cat #: 920018GF2) at 37° C. and 5% CO2 in a humidified CO2 and temperature-controlled incubator. To begin assay plating, cells were washed with Dulbecco's phosphate buffered saline (CellGro, Cat #: 21-031-CV) and lifted from the culturing flask by incubation (37° C., 5 min) with CellStripper (Cellgro, Cat #: 25-056-CI). […] Plated cells were incubated overnight at 37° C. and 5% CO2 in a humidified CO2 and temperature-controlled incubator.
Agonist-promoted G-protein responses were determined by measuring changes in intracellular cAMP using the HTRF® cAMP HiRange kit (CisBio, Cat #: 62AM6PEJ) based on time-resolved fluorescence resonance energy transfer (TR-FRET) technology. […] Following a 30-minute incubation at 37° C. and 5% CO2 in a humidified CO2 and temperature-controlled incubator, the components of the cAMP HiRange kit were added as per the manufacturer's instructions. After an hour incubation at room temperature, plates were analyzed by a BMG PheraStar microplate reader.
These values are normalized to fingolimod, a known agonist of the sphingosine-1-phosphate 1 receptor.

Chain of human sphingosine-1-phosphate receptor 1 (S1P1) (P21453 whole entry): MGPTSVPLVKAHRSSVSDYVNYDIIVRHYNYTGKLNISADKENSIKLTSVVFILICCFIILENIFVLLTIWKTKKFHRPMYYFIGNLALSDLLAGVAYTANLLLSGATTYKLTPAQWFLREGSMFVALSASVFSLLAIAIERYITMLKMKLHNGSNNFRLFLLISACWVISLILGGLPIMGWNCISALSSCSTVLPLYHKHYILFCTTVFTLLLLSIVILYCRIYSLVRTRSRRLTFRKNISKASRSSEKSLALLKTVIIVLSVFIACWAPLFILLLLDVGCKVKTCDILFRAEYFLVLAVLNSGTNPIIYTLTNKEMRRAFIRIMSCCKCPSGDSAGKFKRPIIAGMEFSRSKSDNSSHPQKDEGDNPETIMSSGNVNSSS

| EC50 [µM] | SMILES |
| --- | --- |
| > 0.316 | Cc1ccccc1-c1noc(-c2ccc3c(c2)nnn3C2CCOCC2)n1 [Compound 95, 5-[3-(2-methylphenyl)-1,2,4-oxadiazol-5-yl]-1-(oxan-4-yl)-1H-1,2,3-benzotriazole] |
| > 0.316 | Brc1ccccc1-c1nc(-c2ccc3[nH]nnc3c2)no1 [Compound 97, 3-(1H-benzo[d][1,2,3]triazol-5-yl)-5-(2-bromophenyl)-1,2,4-oxadiazole] |
| > 0.316 | Brc1ccccc1-c1nc(-c2ccc3c(c2)nnn3CC2CC2)no1 [Compound 98, 5-(2-bromophenyl)-3-(1-(cyclopropylmethyl)-1H-benzo[d][1,2,3]triazol-5-yl)-1,2,4-oxadiazole] |
| > 0.316 | Cc1ccncc1-c1nc(-c2ccc3c(c2)nnn3C(C)C)no1 [Compound 100, 3-(1-isopropyl-1H-benzo[d][1,2,3]triazol-5-yl)-5-(4-methyl-pyridin-3-yl)-1,2,4-oxadiazole] |
| < 0.316 | Cc1ccncc1-c1noc(-c2ccc3c(c2)nnn3C(C)C)n1 [Compound 101, 5-[3-(4-methylpyridin-3-yl)-1,2,4-oxadiazol-5-yl]-1-(propan-2-yl)-1H-1,2,3-benzotriazole] |
| > 0.316 | O=C1CCOc2ccc(-c3nc(-c4cccnc4)no3)cc21 [Compound 102, 6-[3-(pyridin-3-yl)-1,2,4-oxadiazol-5-yl]-3,4-dihydro-2H-1-benzopyran-4-one] |
| < 0.316 | CCC1(CC)CC(=O)c2cc(-c3nnc(-c4cccnc4)s3)ccc2O1 [Compound 104, 2,2-diethyl-6-(5-(pyridin-3-yl)-1,3,4-thiadiazol-2-yl)chroman-4-one] |
| > 0.316 | CCC1(CC)CC(=O)c2cc(-c3nc(-c4ccc(O)nc4)no3)ccc2O1 [Compound 105, 2,2-diethyl-6-[3-(6-hydroxy-3-pyridyl)-1,2,4-oxadiazol-5-yl]chroman-4-one] |
| < 0.316 | CCC1(CC)CC(=O)c2cc(-c3nc(-c4ccc(S(N)(=O)=O)cc4)no3)ccc2O1 [Compound 106, 4-(5-(2,2-diethyl-4-oxochroman-6-yl)-1,2,4-oxadiazol-3-yl)benzenesulfonamide] |
| < 0.316 | CC(C)Nc1ccc(-c2nc(-c3ccc4c(c3)CC(=O)N4)no2)cc1C#N [Compound 107, 2-(isopropylamino)-5-(3-(2-oxoindolin-5-yl)-1,2,4-oxadiazol-5-yl)benzonitrile] |
| < 0.316 | COc1cccc(-c2cnc(-c3ccc4c(c3)nnn4C(C)C)s2)c1 [Compound 108, 2-(1-isopropyl-1H-benzo[d][1,2,3]triazol-5-yl)-5-(3-methoxy-phenyl)thiazole] |
| > 0.316 | COc1ccc(-c2cnc(-c3ccc4c(c3)nnn4C(C)C)s2)cc1 [Compound 109, 2-(1-isopropyl-1H-benzo[d][1,2,3]triazol-5-yl)-5-(4-methoxy-phenyl)thiazole] |
| > 0.316 | CC(C)n1nnc2cc(-c3ncc(-c4cccc(F)c4)s3)ccc21 [Compound 110, 5-(3-fluorophenyl)-2-(1-isopropyl-1H-benzo[d][1,2,3]triazol-5-yl)thiazole] |
| > 0.316 | CCC1(CC)CC(=O)c2cc(-c3nc(-c4ccccn4)no3)ccc2O1 [Compound 111, 2,2-diethyl-6-[3-(2-pyridyl)-1,2,4-oxadiazol-5-yl]chroman-4-one] |
| > 0.316 | FC(F)(F)c1cc(Br)ccc1-c1noc(-c2ccc3c(c2)nnn3C2CCCC2)n1 [Compound 114, 5-{3-[4-bromo-2-(trifluoromethyl)phenyl]-1,2,4-oxadiazol-5-yl}-1-cyclopentyl-1H-1,2,3-benzotriazole] |
| < 0.316 | Brc1ccccc1-c1nc(-c2ccc3c(c2)nnn3C2CCCCC2)no1 [Compound 115, 5-(2-bromophenyl)-3-(1-cyclohexyl-1H-benzo[d][1,2,3]triazol-5-yl)-1,2,4-oxadiazole] |
| > 0.316 | COc1cc(-c2nc(-c3ccc4c(c3)nnn4C(C)C)no2)ccn1 [Compound 116, 3-(1-isopropyl-1H-benzo[d][1,2,3]triazol-5-yl)-5-(2-methoxypyridin-4-yl)-1,2,4-oxadiazole] |
| > 0.316 | Cc1ccc(-c2noc(-c3ccc4c(c3)nnn4C3CCCCC3)n2)cc1 [Compound 117, 1-cyclohexyl-5-[3-(4-methylphenyl)-1,2,4-oxadiazol-5-yl]-1H-1,2,3-benzotriazole] |
| > 0.316 | Cc1ccc(-c2nc(-c3ccc4c(c3)nnn4C(C)C)no2)cn1 [Compound 119, 3-(1-isopropyl-1H-benzo[d][1,2,3]triazol-5-yl)-5-(6-methyl-pyridin-3-yl)-1,2,4-oxadiazole] |
| < 0.316 | COc1ccccc1-c1nc(-c2ccc3c(c2)nnn3C2CCCC2)no1 [Compound 120, 3-(1-cyclopentyl-1H-benzo[d][1,2,3]triazol-5-yl)-5-(2-methoxyphenyl)-1,2,4-oxadiazole] |
| > 0.316 | CC(C)Oc1ccc(-c2nc(-c3ccc4c(c3)nnn4C3CCCC3)no2)cc1 [Compound 121, 3-(1-cyclopentyl-1H-benzo[d][1,2,3]triazol-5-yl)-5-(4-isopropoxyphenyl)-1,2,4-oxadiazole] |
| > 0.316 | CC(C)CCn1nnc2cc(-c3nc(-c4ccc(C(F)(F)F)c(F)c4)no3)ccc21 [Compound 122, 5-{3-[3-fluoro-4-(trifluoromethyl)phenyl]-1,2,4-oxadiazol-5-yl}-1-(3-methyl-butyl)-1H-1,2,3-benzotriazole] |
| > 0.316 | COc1cccc(-c2noc(-c3ccc4c(c3)nnn4C3CCCC3)n2)n1 [Compound 124, 1-cyclopentyl-5-[3-(6-methoxypyridin-2-yl)-1,2,4-oxadiazol-5-yl]-1H-1,2,3-benzotriazole] |
| > 0.316 | CC(C)n1nnc2cc(-c3noc(C4CCC(F)(F)CC4)n3)ccc21 [Compound 125, 5-[5-(4,4-difluoro-cyclohexyl)-1,2,4-oxadiazol-3-yl]-1-(propan-2-yl)-1H-1,2,3-benzotriazole] |
| > 0.316 | Cc1cc(C)cc(Cc2noc(-c3ccc4c(c3)nnn4C(C)C)n2)c1 [Compound 126, 5-{3-[(3,5-dimethyl-phenyl)methyl]-1,2,4-oxadiazol-5-yl}-1-(propan-2-yl)-1H-1,2,3-benzotriazole] |
| > 0.316 | CC(C)n1nnc2cc(-c3noc(C4CCCCC4)n3)ccc21 [Compound 127, 5-(5-cyclohexyl-1,2,4-oxadiazol-3-yl)-1-(propan-2-yl)-1H-1,2,3-benzotriazole] |
| > 0.316 | CC(C)n1nnc2cc(-c3nc(-c4ccc5nncn5c4)no3)ccc21 [Compound 128, 1-(propan-2-yl)-5-(3-{[1,2,4]triazolo[4,3-a]pyridin-6-yl}-1,2,4-oxadiazol-5-yl)-1H-1,2,3-benzotriazole] |
| > 0.316 | COc1ccc(-c2noc(-c3ccc4c(c3)nnn4C(C)C)n2)c2ccccc12 [Compound 129, 5-[3-(4-methoxy-naphthalen-1-yl)-1,2,4-oxadiazol-5-yl]-1-(propan-2-yl)-1H-1,2,3-benzotriazole] |
| > 0.316 | COc1cccc(-c2nc(-c3ccc4c(c3)nnn4C3CCCC3)no2)c1 [Compound 130, 3-(1-cyclopentyl-1H-benzo[d][1,2,3]triazol-5-yl)-5-(3-methoxy-phenyl)-1,2,4-oxadiazole] |
| > 0.316 | CC(C)n1nnc2cc(-c3noc(-c4ccc(COc5ccccc5)cc4)n3)ccc21 [Compound 131, 3-(1-isopropyl-1H-benzo[d][1,2,3]triazol-5-yl)-5-(4-(phenoxy-methyl)phenyl)-1,2,4-oxadiazole] |
